Test results from patent publication US20260248881A1, “PHARMACEUTICAL COMPOSITION COMPRISING FOXM1 INHIBITOR AND IMMUNE CHECKPOINT INHIBITOR FOR PREVENTING OR TREATING CANCER” (National Cancer Center, priority 2022, published 2026).

Experiments:
FOXM1 and PD-L1 = FOXM1 and PD-L1 expression in MC38 cells (immunoblotting, confocal imaging); assay type: cell-based, mouse
Description: Human colorectal cancer cell lines (HCT116, HCT8, and SW480) and human primary coronary artery smooth muscle cells (SMCs) were purchased from the American Type Culture Collection (Manassas, VA, USA), and a MC38 mouse colorectal adenocarcinoma cell line was provided by Dr. Beom-Kyu Choi (National Cancer Center, Goyang, Republic of Korea). MC38 cells were cultured in Dulbecco's modified Eagle's medium (DMEM) supplemented with 10% FBS and 1% penicillin/streptomycin. SW480 and HCT8 cells were cultured in Roswell Park Memorial Institute (RPMI) medium supplemented with 10% FBS and 1% penicillin/streptomycin. […]
For immunoblotting analysis, protein concentrations were measured using a bicinchoninic acid kit (Cat. 23225; Thermo Fisher Scientific, Carlsbad, CA, USA). […] The appropriate secondary antibodies conjugated to horseradish peroxidase were bound to the washed membrane, and protein bands were detected using a chemiluminescence kit (Thermo Fisher Scientific, Carlsbad, CA, USA).
To confirm the dose-dependent downregulation of PD-L1 levels by TST, which is a FOXM1 inhibitor, live cell imaging was performed on PD-L1 expression in MC38 cells. […] Fluorescence images of nuclei (λex 359 nm, λem 457 nm) and PD-L1 (λex 590 nm, λem 618 nm) were obtained using a confocal scanning laser microscope (LSM780; Carl Zeiss, Oberkochen, Germany).

FOXM1 = target: T1, FOXM1 (Homo sapiens, UniProt Q08050); assay: FOXM1 protein levels and nuclear translocation (nuclear cytoplasmic fractionation, Western blot, ICC); assay type: cell-based; conditions: for FOXM1 overexpression decreased by: TST-treated cells; for restoration of FOXM1 levels by overexpression of FOXM1 in treated cells: compared to mock transfection
T1 construct: FLAG; expressed in transfected cells; host or cells: H1299 and PC9 cells
T1 sequence (Q08050 1-748 isoform Q08050-2): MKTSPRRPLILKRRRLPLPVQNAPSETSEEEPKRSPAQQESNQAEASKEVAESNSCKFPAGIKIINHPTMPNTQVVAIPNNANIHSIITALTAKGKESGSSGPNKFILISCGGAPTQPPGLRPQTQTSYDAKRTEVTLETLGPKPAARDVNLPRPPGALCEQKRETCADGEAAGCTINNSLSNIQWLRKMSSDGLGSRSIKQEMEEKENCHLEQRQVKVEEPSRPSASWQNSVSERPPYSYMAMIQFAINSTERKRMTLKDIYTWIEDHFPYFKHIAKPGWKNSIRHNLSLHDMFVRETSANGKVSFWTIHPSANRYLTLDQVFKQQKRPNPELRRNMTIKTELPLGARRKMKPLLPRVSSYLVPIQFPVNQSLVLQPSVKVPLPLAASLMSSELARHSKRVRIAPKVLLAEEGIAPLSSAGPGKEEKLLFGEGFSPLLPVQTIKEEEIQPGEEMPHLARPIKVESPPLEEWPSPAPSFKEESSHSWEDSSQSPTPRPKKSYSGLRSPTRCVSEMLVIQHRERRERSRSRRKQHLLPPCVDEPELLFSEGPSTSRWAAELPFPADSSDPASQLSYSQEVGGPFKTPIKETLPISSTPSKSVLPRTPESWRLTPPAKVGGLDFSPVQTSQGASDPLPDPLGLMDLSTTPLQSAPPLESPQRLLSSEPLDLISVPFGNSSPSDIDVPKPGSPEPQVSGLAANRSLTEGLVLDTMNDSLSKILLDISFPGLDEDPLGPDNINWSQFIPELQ
Description: To confirm protein subcellular localization, lysis of H1299 and PC9 cell pellets was performed in Buffer A (10 mM HEPES, 10 mM KCl, 1.5 mM MgCl2, 0.5 mM dithiothreitol (DTT), and 0.05% IGEPAL CA-630 (pH 7.9)) for 10 minutes. The Buffer A lysate was centrifuged at 1,000×g for 10 minutes at 4° C. to collect the nuclear fraction. After removal of the cytosolic fraction, buffer B containing 5 mM HEPES, 0.2 mM EDTA, 1.5 mM MgCl2, 0.5 mM DTT, and 26% glycerol (v/v) (pH 7.9) was added to the nuclear fraction and lysed on ice for 30 minutes.
Cells were lysed in RIPA buffer supplemented with complete mini protease inhibitor cocktail (#04693124001; Roche, Basel, Switzerland) and kept on ice for 30 minutes. Equal amounts of protein were evenly loaded and analyzed by sodium dodecyl sulfate-polyacrylamide gel electrophoresis (SDS-PAGE), and transferred to polyvinylidene difluoride (PVDF) membranes (#IPVH 00010; Millipore, Billerica, MA, USA) at 100 V for 1 hour. Primary antibodies (Santa Cruz Biotechnology, Texas, USA) specific for FOXM1 (#sc-271746), cyclin E1 (#sc-481), α-tubulin (#sc-8035), and β-actin (#sc-47778); PD-L1 (#13684S), cyclin D1 (#2978S), cyclin B1 (#4138S), c-MYC (#5605S), and poly(ADP-ribose) polymerase (PARP, #9542S; Cell Signaling Technology, Beverly, MA, USA) were used to probe proteins of interest. A horseradish-peroxidase-conjugated secondary antibodies specific to the primary antibody was used to detect proteins using pico-enhanced chemiluminescence substrate (#34577; Thermo Fisher Scientific).
Cells were fixed in 4% paraformaldehyde (#30525-89-4; FUJIFILM Wako Chemical, Wako, Japan) for 15 minutes and blocked with 1% bovine serum albumin (BSA) in phosphate-buffered saline-0.01% Tween-20 (PBS-T) to reduce nonspecific antibody binding. Cells were then incubated overnight with an anti-PD-L1 antibody (#14598382; eBioscience, San Diego, CA, USA) diluted 1:200 and an anti-FOXM1 antibody (#sc-271746; Santa Cruz Biotechnology) diluted 1:50, followed by incubation with an Alexa Fluor 488-labeled secondary antibody (#A11029; Thermo Fisher Scientific) for 1 hour. Nuclei were stained with Hoechst 33342. After incubation, cells were washed with PBS and mounted on glass slides using Prolong Glass Antifade mounting medium (#P36982; Thermo Fisher Scientific). Confocal microscopy was performed using a Zeiss 730 Meta microscope (Carl Zeiss, Oberkochen, Germany) and analyzed using Axiovision software (Carl Zeiss).

Substance: thiostrepton [TST]
- level of PD-L1 in the plasma membrane (FOXM1 and PD-L1; MC38, TST 0, 1, 5, and 10 μM, 48 hours): dose-dependently decreased
- FOXM1 and PD-L1 expression levels (FOXM1 and PD-L1; MC38 mouse colorectal cancer cells): dose-dependently decreased
- FOXM1 overexpression decreased by (FOXM1; H1299): 63.7%
- restoration of FOXM1 levels by overexpression of FOXM1 in treated cells (FOXM1; H1299): 84.33%
- protein levels and nuclear translocation of FOXM1 (FOXM1; H1299 and PC9, TST 5 μM in the presence of IFN-γ 20 ng mL-1, or siFOXM1): decreased the protein levels and nuclear translocation of FOXM1
- FOXM1 overexpression decreased by (FOXM1; PC9): 44%
- restoration of FOXM1 levels by overexpression of FOXM1 in treated cells (FOXM1; PC9): 57.56%
